Assay results from publication PMC10128108 (RSC Advances, 2023).
“Also recorded” adds a separate entry of the source.

Key:
[1] = test system: human lung fibroblasts (WI-38) normal cells; assay: MTT cytotoxicity assay, normal WI-38 cells; type: cell-based; conditions: WI-38, read-out: IC50 against WI-38
[2] = test system: MCF-7 breast cancer cell line; assay: MTT antiproliferative assay, MCF-7; conditions: for IC50: Homo sapiens, MCF7, read-out: IC50 against MCF-7; for SI (selectivity index), MCF-7: relative to normal WI-38 cells
[3] = test system: HepG-2 liver cancer cell line; assay: MTT antiproliferative assay, HepG-2; conditions: for IC50: Homo sapiens, HepG2, read-out: IC50 against HepG-2; for SI (selectivity index), HepG-2: relative to normal WI-38 cells
[4] = test system: HCT-116 colorectal cancer cell line; assay: MTT antiproliferative assay, HCT-116; conditions: for IC50: Homo sapiens, HCT-116, read-out: IC50 against HCT-116; for SI (selectivity index), HCT-116: relative to normal WI-38 cells
[5] = test system: HepG-2 cells; assay: Cell cycle analysis; type: cell-based, human; conditions: 24 h
[6] = test system: HepG-2 cells; assay: Annexin V-FITC/PI apoptosis assay; type: cell-based, human
[7] = test system: Bax; assay: Bax level, ELISA in HepG-2; type: cell-based, human; conditions: for Bax: HepG-2, 24 h, 5a at 3.42 μM; for Bax/Bcl-2: ratio of the two levels, HepG-2
[8] = test system: Bcl-2; assay: Bcl-2 level, ELISA in HepG-2; type: cell-based, human; conditions: for Bcl-2: HepG-2, 24 h, 5a at 3.42 μM
[9] = test system: p53; assay: p53 level, ELISA in HepG-2; type: cell-based, human
[10] = test system: caspase-3; assay: Caspase-3 level, ELISA in HepG-2; type: cell-based, human; conditions: for Casp-3: HepG-2, 24 h, 5a at 3.42 μM
[11] = biological target: c-Met kinase (Homo sapiens, UniProt P08581); assay: c-Met kinase inhibitory assay
c-Met kinase, sequence (P08581 25-1390): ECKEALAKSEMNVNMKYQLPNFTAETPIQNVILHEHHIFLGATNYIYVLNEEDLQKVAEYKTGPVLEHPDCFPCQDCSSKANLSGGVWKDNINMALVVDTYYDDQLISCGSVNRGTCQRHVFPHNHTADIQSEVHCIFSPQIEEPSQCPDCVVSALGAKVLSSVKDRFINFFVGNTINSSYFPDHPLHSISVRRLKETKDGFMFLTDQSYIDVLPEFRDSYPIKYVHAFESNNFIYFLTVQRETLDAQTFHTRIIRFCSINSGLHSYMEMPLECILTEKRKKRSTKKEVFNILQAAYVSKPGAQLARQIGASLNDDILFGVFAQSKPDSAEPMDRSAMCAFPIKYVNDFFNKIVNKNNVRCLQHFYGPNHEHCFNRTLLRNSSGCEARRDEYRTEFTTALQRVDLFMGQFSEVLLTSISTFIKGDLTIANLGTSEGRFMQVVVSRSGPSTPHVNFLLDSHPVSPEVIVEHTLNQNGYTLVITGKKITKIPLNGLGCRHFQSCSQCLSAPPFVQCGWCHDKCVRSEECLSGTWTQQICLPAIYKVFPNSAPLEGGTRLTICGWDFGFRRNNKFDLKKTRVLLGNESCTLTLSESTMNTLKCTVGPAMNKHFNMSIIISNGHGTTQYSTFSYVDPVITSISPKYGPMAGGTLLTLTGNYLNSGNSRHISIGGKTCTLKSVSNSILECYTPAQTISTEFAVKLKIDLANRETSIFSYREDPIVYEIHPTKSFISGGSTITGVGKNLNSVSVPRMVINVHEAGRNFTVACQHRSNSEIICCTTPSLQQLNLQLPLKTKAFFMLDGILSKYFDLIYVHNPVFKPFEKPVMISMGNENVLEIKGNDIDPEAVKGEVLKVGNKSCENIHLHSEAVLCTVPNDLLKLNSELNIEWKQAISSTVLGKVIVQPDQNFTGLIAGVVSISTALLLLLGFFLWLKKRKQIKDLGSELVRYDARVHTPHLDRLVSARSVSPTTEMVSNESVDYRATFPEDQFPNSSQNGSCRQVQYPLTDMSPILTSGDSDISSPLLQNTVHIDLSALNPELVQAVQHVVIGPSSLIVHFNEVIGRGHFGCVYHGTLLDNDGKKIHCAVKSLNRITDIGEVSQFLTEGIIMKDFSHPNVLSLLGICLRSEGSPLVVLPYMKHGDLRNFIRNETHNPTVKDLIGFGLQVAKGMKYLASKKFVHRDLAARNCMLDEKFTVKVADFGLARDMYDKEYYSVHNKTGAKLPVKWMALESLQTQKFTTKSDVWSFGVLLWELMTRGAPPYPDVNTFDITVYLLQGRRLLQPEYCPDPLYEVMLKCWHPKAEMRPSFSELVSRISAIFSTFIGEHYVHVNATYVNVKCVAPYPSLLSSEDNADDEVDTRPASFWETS

[12] = HepG-2, IC50 concentration (3.42 μM)
[13] = with respect to untreated HepG-2 cells

O=c1[nH]cc(F)c(=O)[nH]1 [5-Fluorouracil, reference compound]
IC50 [1]: 79.7 ± 0.64 µM
IC50 [2]: 3.58 ± 0.45 µM
SI (selectivity index), MCF-7 [2]: 22.26
IC50 [3]: 2.87 ± 0.15 µM
SI (selectivity index), HepG-2 [3]: 27.77
IC50 [4]: 5.26 ± 0.31 µM
SI (selectivity index), HCT-116 [4]: 15.15

Cc1ccc(S(=O)(=O)n2nc(C)c3c(-c4ccccc4)c(C#N)c(=S)[nH]c32)cc1 [Compound 5a, 3-Methyl-4-phenyl-6-thioxo-1-tosyl-6,7-dihydro-1H-pyrazolo[3,4-b]pyridine-5-carbonitrile]
IC50 [1]: 80.46 ± 0.33 µM
cell cycle arrest phase ([5]; HepG-2, 3.42 μM): arrested the cell cycle at the G1/S phase; also recorded: cell cycle arrest at the G1/S phase
percentage of cells in G0–G1 phase [5, 12]: 51.93%
percentage of cells in G2/M phase [5, 12]: 3.89%
percentage of cells in S phase [5, 12]: 44.18%
Apoptosis Early ([6]; HepG-2, 3.42 μM, 24 h): 24.63%
Apoptosis Late ([6]; HepG-2, 3.42 μM, 24 h): 16.28%
Necrosis ([6]; HepG-2, 3.42 μM, 24 h): 6.24%
fold increase of early apoptotic cells [6, 13]: about 63 folds
fold increase of late apoptotic cells [6, 13]: ~116 folds
Bax [7]: 211.40 ± 0.25 pg/mL
Bax/Bcl-2 [7]: 101.14
fold increase of Bax level ([7]; vs untreated HepG-2 cells): ~5.4 folds
fold increase of Bax/Bcl-2 ratio ([7]; vs untreated HepG-2 cells): 21 times
Bcl-2 [8]: 2.09 ± 0.15 ng/mL
fold reduction of Bcl-2 level ([8]; vs untreated HepG-2 cells): ~3.9 folds
p53 ([9]; HepG-2, 24 h, 5a at 3.42 μM): 825.22 ± 0.40 pg/mL
fold upregulation of p53 ([9]; vs untreated HepG-2 cells): 6.9 folds
Casp-3 [10]: 42.60 ± 0.10 ng/mL
fold upregulation of caspase-3 ([10]; vs untreated HepG-2 cells): 23.8 folds
IC50 [2]: 5.25 ± 1.04 µM
SI (selectivity index), MCF-7 [2]: 15.32
IC50 [3]: 3.42 ± 1.31 µM
fold more potent than erlotinib against HepG-2 ([3]; ratio of IC50 values): approximately 2.4 fold
SI (selectivity index), HepG-2 [3]: 23.52
IC50 [4]: 6.27 ± 1.15 µM
SI (selectivity index), HCT-116 [4]: 12.83
IC50 [11]: 0.00427 ± 0.00031 µM

Cc1ccc(S(=O)(=O)n2nc(C)c3c(-c4ccc(Cl)cc4)c(C#N)c(=S)[nH]c32)cc1 [Compound 5b, 4-(4-Chlorophenyl)-3-methyl-6-thioxo-1-tosyl-6,7-dihydro-1H-pyrazolo[3,4-b]pyridine-5-carbonitrile]
IC50 [1]: 85.1 ± 0.32 µM
IC50 [2]: 6.82 ± 1.1 µM
SI (selectivity index), MCF-7 [2]: 12.47
IC50 [3]: 3.56 ± 1.5 µM
fold more potent than erlotinib against HepG-2 ([3]; ratio of IC50 values): approximately 2.4 fold
SI (selectivity index), HepG-2 [3]: 23.90
IC50 [4]: 9.21 ± 0.02 µM
SI (selectivity index), HCT-116 [4]: 9.23
IC50 [11]: 0.00795 ± 0.00017 µM

Cc1ccc(S(=O)(=O)n2nc(C)c3c(-c4ccccc4)c4c(N)c(C(N)=O)sc4nc32)cc1 [Compound 8a, 5-Amino-3-methyl-4-phenyl-1-tosyl-1H-pyrazolo[3,4-b]thieno[3,2-e]pyridine-6-carboxamide]
IC50 [2]: 43.02 ± 0.24 µM
IC50 [3]: 30.58 ± 0.01 µM
IC50 [4]: 47.38 ± 0.11 µM

CC(=O)c1sc2nc3c(c(C)nn3S(=O)(=O)c3ccc(C)cc3)c(-c3ccccc3)c2c1N [Compound 8b, 1-(5-Amino-3-methyl-4-phenyl-1-tosyl-1H-pyrazolo[3,4-b]thieno[3,2-e]pyridin-6-yl)ethan-1-one]
IC50 [2]: 60.23 ± 0.17 µM
IC50 [3]: 52.1 ± 0.71 µM
IC50 [4]: 67.84 ± 0.02 µM

Cc1ccc(S(=O)(=O)n2nc(C)c3c(-c4ccc(Cl)cc4)c4c(N)c(C#N)sc4nc32)cc1 [Compound 8c, 5-Amino-4-(4-chlorophenyl)-3-methyl-1-tosyl-1H-pyrazolo[3,4-b]thieno[3,2-e]pyridine-6-carbonitrile]
IC50 [2]: 36.25 ± 0.13 µM
IC50 [3]: 25.4 ± 0.5 µM
IC50 [4]: 41.77 ± 0.4 µM

CCOC(=O)c1sc2nc3c(c(C)nn3S(=O)(=O)c3ccc(C)cc3)c(-c3ccc(Cl)cc3)c2c1N [Compound 8d, Ethyl 5-amino-4-(4-chlorophenyl)-3-methyl-1-tosyl-1H-pyrazolo[3,4-b]thieno[3,2-e]pyridine-6-carboxylate]
IC50 [2]: 32.14 ± 0.19 µM
IC50 [3]: 23.12 ± 0.08 µM
IC50 [4]: 38.11 ± 0.3 µM

CC(=O)c1sc2nc3c(c(C)nn3S(=O)(=O)c3ccc(C)cc3)c(-c3ccc(Cl)cc3)c2c1N [Compound 8e, 1-(5-Amino-4-(4-chlorophenyl)-3-methyl-1-tosyl-1H-pyrazolo[3,4-b]thieno[3,2-e]pyridin-6-yl)ethan-1-one]
IC50 [2]: 14.2 ± 0.33 µM
IC50 [3]: 12.31 ± 0.1 µM
IC50 [4]: 18.2 ± 0.62 µM

Cc1ccc(S(=O)(=O)n2nc(C)c3c(-c4ccc(Cl)cc4)c4c(N)c(C(=O)O)sc4nc32)cc1 [Compound 8f, 5-Amino-4-(4-chlorophenyl)-3-methyl-1-tosyl-1H-pyrazolo[3,4-b]thieno[3,2-e]pyridine-6-carboxylic acid]
IC50 [2]: 19.3 ± 0.45 µM
IC50 [3]: 15.4 ± 0.3 µM
IC50 [4]: 18.86 ± 0.12 µM

Cc1ccc(S(=O)(=O)n2nc(C)c3sc(=S)n(C)c32)cc1 [Compound 10a, 3,6-Dimethyl-1-tosyl-1,6-dihydro-5H-pyrazolo[3,4-d]thiazole-5-thione]
IC50 [2]: 13.7 ± 0.7 µM
IC50 [3]: 10.2 ± 0.15 µM
IC50 [4]: 17.2 ± 0.37 µM

Cc1ccc(S(=O)(=O)n2nc(C)c3sc(=S)n(-c4ccccc4)c32)cc1 [Compound 10b, 3-Methyl-6-phenyl-1-tosyl-1H-pyrazolo[3,4-d]thiazole-5(6H)-thione]
IC50 [1]: 85.41 ± 0.51 µM
IC50 [2]: 8.13 ± 0.4 µM
SI (selectivity index), MCF-7 [2]: 10.50
IC50 [3]: 6.75 ± 0.62 µM
fold less potent than 5-FU against HepG-2 ([3]; ratio of IC50 values): 2.3 fold
SI (selectivity index), HepG-2 [3]: 12.65
IC50 [4]: 9.36 ± 0.45 µM
SI (selectivity index), HCT-116 [4]: 9.12

C#Cc1cccc(Nc2ncnc3cc(OCCOC)c(OCCOC)cc23)c1 [Erlotinib, reference compound]
IC50 [1]: 70 ± 1.08 µM
Bax [7]: 200.20 ± 0.25 pg/mL
Bax/Bcl-2 [7]: 118.84
Bcl-2 [8]: 1.69 ± 0.10 ng/mL
Casp-3 [10]: 58.41 ± 0.12 ng/mL
